Measured values from patent US20070098770A1, “Cosmetic path using method thereof, and cosmetic path package” (priority 2003, published 2007).

Tests used:
[1] = cited from earlier work
[2] = Stability of vitamin C dissolved in water; format: physicochemical; conditions: eight hours after it is dissolved in water

portion oxidized into dehydroascorbic acid and deactivated by hydrolysis [2]	Compound	volume of an absolute alcohol in which 1 g dissolves ([1]; absolute alcohol)	volume of an alcohol in which 1 g dissolves ([1]; alcohol)	volume of glycerol in which 1 g dissolves ([1]; glycerol)	volume of propylene glycol in which 1 g dissolves ([1]; propylene glycol)	volume of water in which 1 g dissolves ([1]; water)	solubility in an alcohol ([1]; alcohol (95% in ethanol))	solubility in water ([1]; water)
at least 10%	O=C1O[C@H]([C@@H](O)CO)C(O)=C1O [Vitamin C, L-ascorbic acid]	50 mL	30 mL	100 mL	20 mL	3 mL	–	–
–	tocopherol [vitamin E]	–	–	–	–	–	readily soluble	almost insoluble
